One data set relates to THP-1 cells. The data set is described as follows: Flow cytometry of CD11b and CD68 after THP-1 cells are differentiated into macrophages. As to conditions: flow cytometry after PMA-induced differentiation. Format: cell-based, human. How it is done:
(§1) 1) Transfection of THP-1 cells: the cells were inoculated into a 24-well plate at a density of 2.5×10^5/ well. A transfection reagent was prepared: A: 50 μL of low serum culture medium (Opti-MEM I Reduced Serum Medium, Cat. No. 31985070, Gibco) was added with 3 μL of transfection reagent (Lipofectamine™ RNAiMAX Transfection Reagent, Cat. No. 13778075, Invitrogen). B: 50 μL of low serum culture medium (Opti-MEM I Reduced Serum Medium, Cat. No. 31985070, Gibco) was added with 1 μL of siRNA (RIBO BIO). A and B were mixed and incubated at room temperature for 5 minutes, and 50 μL of the mixture was added with the THP-1 cells to culture overnight.
(§2) 2) A cell suspension was collected and centrifuged at 1000 rpm and room temperature for 5 minutes, a supernatant was removed, and PMA (50 ng/ml, Cat. No. p1585, Sigma) was added to induce for 24 hours.
4) The cells were collected, centrifuged, washed with PBS once, then added with 1 μL of Fixable Viability Stain 780 (Cat No. 565388, BD), mixed evenly, incubated on ice for 20 minutes, and washed with an FACS Buffer (2% BSA in PBS) twice. The solution was added with 2.5 μL of FC blocking antibody (Cat. No. 422302, Biolegend), blocked on ice for 20 minutes, then added with 2.5 μL of CD14-BV421 (Cat. No. 563743, BD) antibody and 1 μL of CD11b-PE (Cat. No. 101207, Biolegend) antibody, incubated on ice in the dark for 20 minutes, and then washed with an FACS Buffer twice. The solution was added with 100 μL of cell fixing solution (Cat. No. 00-8222-49, eBioscience), incubated at room temperature in the dark for 40 minutes, and then washed with a prepared membrane permeation solution (Cat. No. 00-8333-56, eBioscience) twice. The cells were resuspended to 100 μL of membrane permeation solution, added with 1.5 μL of CD68-AF647 (Cat. No. 333820, Biolegend), incubated on ice in the dark for 20 minutes, then washed with the membrane permeation solution twice, resuspended to 100 μL of FACS buffer, and detected on a computer.

The test system of another data set is THP-1 macrophages. Kind of data set: Elastic modulus of siRNA-transfected, PMA-induced THP-1 cells measured by nanoindenter. The note with it: compared with control group si-NC; PMA 50 ng/ml for 24 hours. In kind it is cell-based, human. How it is done: as §1, §2
3) The cell culture medium was replaced by PBS, an instrument was calibrated by using a confocal dish, and then an elastic modulus of the cells was measured.

As to “si-Ptk2b_1: siRNA targeting human Ptk2b gene: GGATCATCATGGAATTGTA (SEQID NO. 1) (listed as DNA, chemistry not given here)”, in the data set on THP-1 cells, the “fluorescence intensity of CD11b of the THP-1 cells” value was “significantly inhibit” and the “fluorescence intensity of CD68 of the THP-1 cells” value is reported as “significantly inhibit”. Also, the “elastic modulus of the THP-1 macrophages” value in the data set with THP-1 macrophages is given as “significantly reduce”.

For the substance “si-Ptk2b_2: siRNA targeting human Ptk2b gene: GGACGAGGACTATTACAAA (SEQID NO. 2) (listed as DNA, chemistry not given here)”, in the data set on THP-1 cells, the “fluorescence intensity of CD11b of the THP-1 cells” value is on record as “significantly inhibit” and the “fluorescence intensity of CD68 of the THP-1 cells” value is given as “significantly inhibit”. For the same substance, the “elastic modulus of the THP-1 macrophages” value with THP-1 macrophages was “significantly reduce”.

“si-Ptk2b_3: siRNA targeting human Ptk2b gene: CACATGAAGTCCGATGAGA (SEQID NO. 3) (listed as DNA, chemistry not given here)”: in the data set with THP-1 cells, the “fluorescence intensity of CD11b of the THP-1 cells” value is reported as “significantly inhibit” and the “fluorescence intensity of CD68 of the THP-1 cells” value is recorded as “significantly inhibit”. In addition, the “elastic modulus of the THP-1 macrophages” value in the data set with THP-1 macrophages is reported as “significantly reduce”.

Values taken from patent publication US12365901B2, “Application of mechanical-force sensitive macrophage subset in pancreatic cancer diagnosis or prognosis evaluation” (priority 2023, dated 2025).
